Laboratory results as given in patent publication US9089546B2, “Synergistic compositions consisting essentially of combinations of active agents selected from oridonin, wogonin, and isoliquiritigenin for the prevention of neoplasia” (ACTIVEPHYTO TECHNOLOGIES LIMITED, priority 2006, dated 2015).

Experiments:
Format in all cases: cell-based
[1] = system: human ovarian cancer cell lines A2780 (sensitive) and PTX-10 (resistant to taxol); test: Antiproliferative activity, MTT cell viability assay, first set of experiments (72 h), comparison of the two cell lines; settings: A2780 versus taxol-resistant PTX-10
Text: The present investigation uses two types of cancer cells: A2780 and PTX-10. A2780 is typical of most human ovarian cancers and is not known to be drug-resistant. PTX10 is a taxol-resistant variant of A2780. These two cell types provide a model to compare the effectiveness of the compositions of the present invention against a typical ovarian human cancer where taxol would be a useful treatment and a tumour line where taxol is not useful in treatment.
Cell lines: A2780 and PTX-10 cell lines were from National Institute of Health, Bethesda, Md.
Cell Culture: Both cell lines were cultured in RPMI 1640 supplemented with 10% foetal bovine serum, L-glutamine and antibiotics according to the method of Halicka et al. (Int. J. Oncology 1:437-48, 1997). All media, supplements, and antibiotics were obtained from Life Technologies (Grand Island, N.Y.). The cultures were periodically tested for Mycoplasma infection.
To maintain asynchronous exponential growth, these adherent cells were routinely seeded at 3×10^5 in a T-75 flask and incubated at 37° C. in 5% CO2 for 5-6 days and then repassaged at a 1:10 dilution by trypsinisation (0.25% trypsin/1 mM EDTA). Morphological changes and cell counts of the control and treated cancer cells were determined by light microscopy. Only exponentially and asynchronously growing cells were used in all experiments.
Inhibition of Cell-Growth and Viability AssASYS: The MTT reagent kit was purchased from Boehringer Mannheim (Roche Diagnosis Corp, Indianapolis, Ind.) to count viable cells. […] The protocol for the cell viability assay was provided by the manufacturer and modified in our laboratory as described below: […]
The plates were incubated at 37° C. in the CO2 incubator for 72 hours. […] The plate was allowed to stand overnight in the CO2 incubator and read by ELISA Reader (EL800, Bio-Tek Instruments, Inc.) at a wavelength of 570 nm. The percent cell viability was calculated according to the equation below: 100% (absorption of the control cells−absorption of the treated cells)/absorption of the control cells. […]

[2] = system: A2780; test: MTT assay, second set of experiments (Experiment 4), single agents; settings: Homo sapiens
Description: (§1) Inhibition of Cell-Growth and Viability […]: The MTT reagent kit was purchased from Boehringer Mannheim (Roche Diagnosis Corp, Indianapolis, Ind.) to count viable cells. […] The protocol for the cell viability assay was provided by the manufacturer and modified in our laboratory as described below: Ovarian cancer cells were seeded in 96 well microtiter plates at a concentration of 6×10^3 cells per well, in a volume of 100 μL of cell culture medium. After 24 hours, 20 μL aliquots of the compounds at various concentrations were added to the attached cells. Each concentration was plated into 3 wells to obtain mean values. To eliminate any solvent effect, 20 μL of the solvent used in the preparation of the highest concentration of the compounds (a maximum of 0.5% by volume of DMSO) was added to the control cells in each well. The plates were incubated at 37° C. in the CO2 incubator for 72 hours. At the end of day 3, the culture medium was carefully removed without disturbing the cells, and replaced by 100 μL of fresh cell medium. 10 μL of MTT reagent was added to each well and the plates were incubated again in the CO2 incubator at 37° C. for 4 hours. 100 μL of SDS solubilising reagent (from Boehringer Mannheim) was added to each well. The plate was allowed to stand overnight in the CO2 incubator and read by ELISA Reader (EL800, Bio-Tek Instruments, Inc.) at a wavelength of 570 nm. The percent cell viability was calculated according to the equation below: 100% (absorption of the control cells-absorption of the treated cells)/absorption of the control cells. A second set of experiments were carried out showing how the compounds in the formulations of the invention act in synergy with one another. The experimental results differ slightly from those reported above as the experimental work was carried out in a different laboratory and under slightly different conditions. In the second set of experiments the MTT reagent kit was purchased from Sigma-Aldridge in the UK and, due to time constraints; the cells were only incubated overnight prior to being treated with the drugs. The cell lines were also of different origin (the second set being obtained directly from Dr Marianne Poruch of the NIH, Bethesda Md., USA) and may have been subjected to different conditions during storage.

[3] = system: PTX10; test: as above; settings: Homo sapiens, PTX10 (taxol-resistant)
Description: as §1

Row | IC50 [2] [nM] | Structure (SMILES) | relative sensitivity of the cell lines (dose-response curves, antiproliferative activity) [1] | IC50 [3] [nM]
1 | 810 ± 130 | C=C1C(=O)[C@]23[C@H](O)[C@H]1CC[C@H]2[C@@]12CO[C@]3(O)[C@@H](O)[C@@H]1C(C)(C)CC[C@@H]2O [Formula I, oridonin] | A2780 cell line is more sensitive | 4720 ± 3700
2 | 670 ± 230 | COc1c(O)cc(O)c2c(=O)cc(-c3ccccc3)oc12 [Formula III, wogonin] | PTX-10 cell line is slightly more sensitive | 590 ± 380
3 | 2400 ± 420 | O=C(/C=C/c1ccc(O)cc1)c1ccc(O)cc1O [Formula V, isoliquiritigenin] | PTX-10 cell line is more sensitive | 300 ± 130
